Values after ≈ are worked out from the molar mass of the structure shown. Values joined by “and” are separate entries in the source; they are usually repeats but may differ in a detail not shown here. Equal entries are not always repeated.
Key:
S.aureus ATCC 29213 = format: cell-based, Staphylococcus aureus; settings: ATCC 29213, Mueller-Hinton broth, 24 hr, 37°C, without replication; for MIC S.aureus in the presence of 4% bovine serum albumin: 4% BSA added, macrobroth dilution; for MIC S.aureus: CLSI macrobroth dilution, 5 x 10^5 CFU/mL
Method in brief: (§1)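 Minimum inhibitory concentrations come from CLSI macrobroth testing at 37°C for 24 hr, in cation-adjusted Mueller-Hinton broth inoculated at about 5 x 10^5 CFU/mL. Performed once.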

MRSA ATCC 33592 = format: cell-based, methicillin-resistant S. aureus; settings: ATCC 33592, Mueller-Hinton broth, 24 hr, 37°C, without replication; for MIC MRSA in the presence of 4% bovine serum albumin: 4% BSA added, macrobroth dilution; for MIC MRSA: CLSI macrobroth dilution, 5 x 10^5 CFU/mL
Method in brief: as §1

MRSE CAN-ICU 61589 = format: cell-based, methicillin-resistant S. epidermidis; settings: CAN-ICU 61589, Mueller-Hinton broth, 24 hr, 37°C, without replication; for MIC MRSE in the presence of 4% bovine serum albumin: 4% BSA added, macrobroth dilution; for MIC MRSE: CLSI macrobroth dilution, 5 x 10^5 CFU/mL
Method in brief: as §1

E. faecalis ATCC 29212 = format: cell-based, Enterococcus faecalis; settings: ATCC 29212, Mueller-Hinton broth, 24 hr, 37°C, without replication; for MIC E. faecalis in the presence of 4% bovine serum albumin: 4% BSA added, macrobroth dilution; for MIC E. faecalis: CLSI macrobroth dilution, 5 x 10^5 CFU/mL
Method in brief: as §1

S.pneumoniae ATCC 49619 = format: cell-based, Streptococcus pneumoniae; settings: ATCC 49619, Mueller-Hinton broth, 24 hr, 37°C, without replication; for MIC S.pneumoniae in the presence of 4% bovine serum albumin: 4% BSA added, macrobroth dilution; for MIC S.pneumoniae: CLSI macrobroth dilution, 5 x 10^5 CFU/mL
Method in brief: as §1

P.aeruginosa ATCC 27853 = format: cell-based, Pseudomonas aeruginosa; settings: ATCC 27853, Mueller-Hinton broth, 24 hr, 37°C, without replication; for MIC P.aeruginosa in the presence of 4% bovine serum albumin: 4% BSA added, macrobroth dilution; for MIC P.aeruginosa: CLSI macrobroth dilution, 5 x 10^5 CFU/mL
Method in brief: as §1

[1] = test system: P.aeruginosa CAN-ICU 62308; format: cell-based, Pseudomonas aeruginosa; settings: CAN-ICU 62308, Mueller-Hinton broth, 24 hr, 37°C, without replication; for MIC P.aeruginosa in the presence of 4% bovine serum albumin: 4% BSA added, macrobroth dilution; for MIC P.aeruginosa: CLSI macrobroth dilution, 5 x 10^5 CFU/mL
Method in brief: as §1

[2] = test system: S. maltophilia CAN-ICU 62584; format: cell-based, Stenotrophomonas maltophilia; settings: CAN-ICU 62584, Mueller-Hinton broth, 24 hr, 37°C, without replication; for MIC S. maltophilia in the presence of 4% bovine serum albumin: 4% BSA added, macrobroth dilution; for MIC S. maltophilia: CLSI macrobroth dilution, 5 x 10^5 CFU/mL
Method in brief: as §1

[3] = test system: A. baumannii CAN-ICU 63169; format: cell-based, Acinetobacter baumannii; settings: CAN-ICU 63169, Mueller-Hinton broth, 24 hr, 37°C, without replication; for MIC A. baumannii in the presence of 4% bovine serum albumin: 4% BSA added, macrobroth dilution; for MIC A. baumannii: CLSI macrobroth dilution, 5 x 10^5 CFU/mL
Method in brief: as §1

K.pneumoniae ATCC 13883 = format: cell-based, Klebsiella pneumoniae; settings: ATCC 13883, Mueller-Hinton broth, 24 hr, 37°C, without replication; for MIC K.pneumoniae in the presence of 4% bovine serum albumin: 4% BSA added, macrobroth dilution; for MIC K.pneumoniae: CLSI macrobroth dilution, 5 x 10^5 CFU/mL
Method in brief: as §1

ovine erythrocytes = test: Haemolytic assay; format: cell-based, sheep; settings: ovine erythrocytes in Tris buffered saline, 30 minutes, absorbance of supernatant at 540 nm
Method in brief: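 Washed sheep erythrocytes in Tris-buffered saline exposed to compound (50 μg/mL–1 mg/mL; final 4.08 x 10^8 cells/mL) for 30 min. After centrifugation, supernatant absorbance at 540 nm gave % haemolysis; 0.5% ammonium chloride as positive control.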

E. faecium ATCC 27270 = format: cell-based; settings: ATCC 27270, Mueller-Hinton broth, 24 hr, 37°C, without replication; for MIC E. faecium in the presence of 4% bovine serum albumin: 4% BSA added, macrobroth dilution; for MIC E. faecium: CLSI macrobroth dilution, 5 x 10^5 CFU/mL
Method in brief: as §1

Compound | MIC S.aureus in the presence of 4% bovine serum albumin (S.aureus ATCC 29213) | MIC S.aureus (S.aureus ATCC 29213) | MIC MRSA in the presence of 4% bovine serum albumin (MRSA ATCC 33592) | MIC MRSA (MRSA ATCC 33592) | MIC MRSE in the presence of 4% bovine serum albumin (MRSE CAN-ICU 61589) | MIC MRSE (MRSE CAN-ICU 61589) | MIC E. faecalis in the presence of 4% bovine serum albumin (E. faecalis ATCC 29212) | MIC E. faecalis (E. faecalis ATCC 29212) | MIC S.pneumoniae in the presence of 4% bovine serum albumin (S.pneumoniae ATCC 49619) | MIC S.pneumoniae (S.pneumoniae ATCC 49619) | MIC P.aeruginosa in the presence of 4% bovine serum albumin (P.aeruginosa ATCC 27853) | MIC P.aeruginosa (P.aeruginosa ATCC 27853) | MIC P.aeruginosa in the presence of 4% bovine serum albumin [1] | MIC P.aeruginosa [1] | MIC S. maltophilia in the presence of 4% bovine serum albumin [2] | MIC S. maltophilia [2] | MIC A. baumannii in the presence of 4% bovine serum albumin [3] | MIC A. baumannii [3] | MIC K.pneumoniae in the presence of 4% bovine serum albumin (K.pneumoniae ATCC 13883) | MIC K.pneumoniae (K.pneumoniae ATCC 13883) | further results
NCCCCN(CC(N)=O)C(=O)CNC(=O)CN(CCCCN)C(=O)CCC(F)(F)C(F)(F)C(F)(F)C(F)(F)C(F)(F)C(F)(F)C(F)(F)C(F)(F)F [F11-NlysGNlys] | 256 µg/mL | 32 µg/mL (≈ 39.8 µM) | 256 µg/mL | 64 µg/mL (≈ 79.5 µM) | 256 µg/mL | 32 µg/mL (≈ 39.8 µM) | 256 µg/mL | 64 µg/mL (≈ 79.5 µM) | 512 µg/mL | 256 µg/mL (≈ 318 µM) | >512 µg/mL | 512 µg/mL (≈ 636 µM) | >512 µg/mL | 512 µg/mL (≈ 636 µM) | >512 µg/mL | >512 µg/mL | >512 µg/mL | >512 µg/mL | >512 µg/mL | >512 µg/mL | Percent haemolysis at 100µg/mL of compound (ovine erythrocytes): 4.84%; MIC E. faecium in the presence of 4% bovine serum albumin (E. faecium ATCC 27270): 256 µg/mL; MIC E. faecium (E. faecium ATCC 27270): 64 µg/mL (≈ 79.5 µM)
CCCCCCCCCCCCCCCC[N+](C)(C)C.[Cl-] [CTAC, Cetyltrimethylammonium chloride, reference compound] | 32 µg/mL | 1 µg/mL | 32 µg/mL | 1 µg/mL | 128 µg/mL | 2 µg/mL | 32 µg/mL | 1 µg/mL | 8 µg/mL | 2 µg/mL | >512 µg/mL | 128 µg/mL | 512 µg/mL | 64 µg/mL | 512 µg/mL | 32 µg/mL | 512 µg/mL | 32 µg/mL | 512 µg/mL | 16 µg/mL | Percent haemolysis at 100µg/mL of compound (ovine erythrocytes): 77% and 77.05%; MIC E. faecium in the presence of 4% bovine serum albumin (E. faecium ATCC 27270): 64 µg/mL; MIC E. faecium (E. faecium ATCC 27270): 0.5 µg/mL
NCCCCN(CC(N)=O)C(=O)CN(CCCCN)C(=O)CN(CCCCN)C(=O)CCC(F)(F)C(F)(F)C(F)(F)C(F)(F)C(F)(F)C(F)(F)C(F)(F)C(F)(F)F [F11-NlysNlysNlys] | 128 µg/mL | 32 µg/mL (≈ 36.5 µM) | 256 µg/mL | 32 µg/mL (≈ 36.5 µM) | 256 µg/mL | 32 µg/mL (≈ 36.5 µM) | 512 µg/mL | 64 µg/mL (≈ 73.1 µM) | 512 µg/mL | 128 µg/mL (≈ 146 µM) | 512 µg/mL | 128 µg/mL (≈ 146 µM) | 512 µg/mL | 256 µg/mL (≈ 292 µM) | >512 µg/mL | >512 µg/mL | >512 µg/mL | >512 µg/mL | >512 µg/mL | >512 µg/mL | Percent haemolysis at 100µg/mL of compound (ovine erythrocytes): 8.13%; MIC E. faecium in the presence of 4% bovine serum albumin (E. faecium ATCC 27270): 256 µg/mL; MIC E. faecium (E. faecium ATCC 27270): 64 µg/mL (≈ 73.1 µM)

From PMC3402541, “Guanidylation and Tail Effects in Cationic Antimicrobial Lipopeptoids” (PLoS ONE, 2012)
